Experiment: Ocular tissue and plasma pharmacokinetics, 50 mg/kg BID oral, Dutch Belted rabbits (Example 4/5)
Type: in vivo
Details: DB rabbit; for Mean Choroid-RPE concentration / Mean Iris-Ciliary Body concentration / Mean plasma concentration / Mean retina concentration / Optic Nerve concentration / Vitreous concentration: 50 mg/kg BID oral; for Mean Choroid-RPE concentration / Mean Iris-Ciliary Body concentration / Mean plasma concentration / Mean retina concentration: 50 mg/kg
Description: Study design, including group designation and dose levels, are outlined in Table 15. […] Two Dutch Belted rabbits received vehicle only oral gavage doses for tolerability assessment. […] The dose volume was 5 mL/kg/dose for all groups. Safety was assessed with toxicological and ophthalmic examinations, including slit lamp biomicroscopy, indirect ophthalmoscopy, rebound tonometry, and ultrasonic corneal pachymetry.
For the pharmacokinetic determination, a single blood sample was taken from each rabbit from Groups 1 and 4 at one hour post-dose on Day 15, Group 2 at one hour post-dose on Day 8, and Group 3 at pre-dose, 1, 6, 24, 96, 168, and 240 hours post-dose on Day 15, with the eyes collected at the same time as blood sampling. Plasma, vitreous humor (VH), retina, choroid-retina pigmented epithelium (Choroid-RPE), optic nerve (ON), and iris-ciliary body (I-CB) were analyzed by LC-MS/MS to quantify test article concentrations. The lower limit of quantitation (LLOQ) in plasma and vitreous humor was 1.0 ng/mL. The LLOQ was 6.0 ng/g in retina, choroid-RPE, and I-CB and the optic nerve LLOQ was 15 ng/g, assuming tissue density of 1 g/mL where relevant. […]

[1] = Choroid-RPE, 50 mg/kg BID, Day 15
[2] = Iris-Ciliary Body, 50 mg/kg BID, Day 15
[3] = Optic Nerve, 50 mg/kg BID, Day 15
[4] = Vitreous Humor, 50 mg/kg BID, Day 15
[5] = male, Dutch Belted, po, Choroid-RPE, 50 mg/kg BID, Day 15
[6] = male, Dutch Belted, po, Iris-Ciliary Body, 50 mg/kg BID, Day 15

CC(=O)c1nn(CC(=O)N2C[C@H](F)C[C@H]2C(=O)Nc2cccc(Br)n2)c2ccc(-c3cnc(C)nc3)cc12 [Compound 1, (2S,4R)-1-(2-(3-Acetyl-5-(2-methylpyrimidin-5-yl)-1H-indazol-1-yl)acetyl)-N-(6-bromopyridin-2-yl)-4-fluoropyrrolidine-2-carboxamide]
AUC(0-t) [1]: 274000 ng·h/g | AUC(0-∞) [1]: 292000 ng·h/g | Tlast [1]: 240 h | Optic nerve concentration after 24 hours post-dose (non-detectable) (50 mg/kg BID for 14 days): < 1.0 ng/mL | Plasma concentration after 24 hours post-dose (non-detectable) (50 mg/kg BID for 14 days): < 1.0 ng/mL | Vitreous humor concentration after 24 hours post-dose (non-detectable) (50 mg/kg BID for 14 days): < 1.0 ng/mL | Mean Choroid-RPE concentration (Day 15, 0 h): 3918 ± 950 ng/g | Mean Iris-Ciliary Body concentration (Day 15, 0 h): 5076 ± 586 ng/g | Mean plasma concentration (Day 15, 0 h): 104 ± 68 ng/mL | Mean retina concentration (Day 15, 0 h): 159 ± 87.9 ng/g | Mean Choroid-RPE concentration (Day 15, 1 h): 8025 ± 2350 ng/g | Mean Iris-Ciliary Body concentration (Day 15, 1 h): 11475 ± 2022 ng/g | Mean plasma concentration (Day 15, 1 h): 2895 ± 884 ng/mL | Mean retina concentration (Day 15, 1 h): 2122 ± 376 ng/g | Mean Choroid-RPE concentration (Day 15, 6 h): 4373 ± 1586 ng/g | Mean Iris-Ciliary Body concentration (Day 15, 6 h): 8822 ± 2621 ng/g | Mean plasma concentration (Day 15, 6 h): 321 ± 70.0 ng/mL | Mean retina concentration (Day 15, 6 h): 725 ± 117 ng/g | Mean Choroid-RPE concentration (Day 15, 24 h): 2097 ± 273 ng/g | Mean Iris-Ciliary Body concentration (Day 15, 24 h): 5556 ± 2128 ng/g | Mean plasma concentration (Day 15, 24 h): 39.9 ± 4.45 ng/mL | Mean retina concentration (Day 15, 24 h): 265 ± 113 ng/g | Optic Nerve concentration (Day 15, 96 h): BLQ^b | Vitreous concentration (Day 15, 96 h): BLQ^c | Mean Choroid-RPE concentration (Day 15, 96 h): 873 ± 392 ng/g | Mean Iris-Ciliary Body concentration (Day 15, 96 h): 2837 ± 1136 ng/g | Mean plasma concentration (Day 15, 96 h): BLQ^a and BLQ | Mean retina concentration (Day 15, 96 h): 32.3 ± 24.2 ng/g | Optic Nerve concentration (Day 15, 168 h): BLQ^b | Vitreous concentration (Day 15, 168 h): BLQ^c | Mean Choroid-RPE concentration (Day 15, 168 h): 645 ± 67.2 ng/g | Mean Iris-Ciliary Body concentration (Day 15, 168 h): 2292 ± 445 ng/g | Mean plasma concentration (Day 15, 168 h): BLQ^a and BLQ | Mean retina concentration (Day 15, 168 h): 54.9 ± 7.28 ng/g | Optic Nerve concentration (Day 15, 240 h): BLQ^b | Vitreous concentration (Day 15, 240 h): BLQ^c | Mean Choroid-RPE concentration (Day 15, 240 h): 195 ± 41.5 ng/g | Mean Iris-Ciliary Body concentration (Day 15, 240 h): 1624 ± 1275 ng/g | Mean plasma concentration (Day 15, 240 h): BLQ^a and BLQ | Mean retina concentration (Day 15, 240 h): 39.4 ± 20.1 ng/g | AUC(0-t) [2]: 801000 ng·h/g | AUC(0-∞) [2]: 1220000 ng·h/g | Tlast [2]: 240 h | AUC(0-t) [3]: 4880 ng·h/g | AUC(0-∞) [3]: 5180 ng·h/g | AUC(0-t) (Retina, 50 mg/kg BID, Day 15): 30300 ng·h/g | AUC(0-∞) (Retina, 50 mg/kg BID, Day 15): 35700 ng·h/g | Tlast (Retina, 50 mg/kg BID, Day 15): 240 h | AUC(0-t) [4]: 419 ng·h/g | AUC(0-∞) [4]: 442 ng·h/g | Tlast [4]: 24 h | Cmax [5]: 8020 ng/g | MRT last [5]: 68.6 h | Tmax [5]: 1 h | half-life [5]: 66.4 h | Cmax [6]: 11500 ng/g | MRT inf [6]: 138 h | MRT last [6]: 88 h | Tmax [6]: 1 h | half-life [6]: 178 h
